Ki data for seven compounds are collected here from BindingDB's records for PubMed 1988661 (Merck Sharp & Dohme Research Laboratories, 1991).

Where a chain is given by its changes, count along the chain named. Several values for one entry are separate records, joined by “and”; a condition that tells them apart may be missing. Equal values may be shown once. Square brackets hold non-standard residues; d marks the D form. Peptide text beside a SMILES is read from it. dPiz(1,6-dehydro) = O=C(O)[C@H]1CCC=NN1; Pip = O=C(O)[C@@H]1CCCCN1; dPip = O=C(O)[C@H]1CCCCN1

The Ki is a dissociation constant, usually derived from enzyme kinetics or from competition with a known ligand. The low end stands for tighter binding, the high end for weaker binding.

The target in test [1] is T1, Rat vasopressin-neurophysin (Rattus norvegicus, UniProt Q6LEI5).
T1 sequence (Q6LEI5 whole entry): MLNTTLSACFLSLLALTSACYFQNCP

In test [2] the target is Vasopressin V2 receptor (Rattus norvegicus, UniProt Q00788).
Vasopressin V2 receptor, sequence (Q00788 whole entry): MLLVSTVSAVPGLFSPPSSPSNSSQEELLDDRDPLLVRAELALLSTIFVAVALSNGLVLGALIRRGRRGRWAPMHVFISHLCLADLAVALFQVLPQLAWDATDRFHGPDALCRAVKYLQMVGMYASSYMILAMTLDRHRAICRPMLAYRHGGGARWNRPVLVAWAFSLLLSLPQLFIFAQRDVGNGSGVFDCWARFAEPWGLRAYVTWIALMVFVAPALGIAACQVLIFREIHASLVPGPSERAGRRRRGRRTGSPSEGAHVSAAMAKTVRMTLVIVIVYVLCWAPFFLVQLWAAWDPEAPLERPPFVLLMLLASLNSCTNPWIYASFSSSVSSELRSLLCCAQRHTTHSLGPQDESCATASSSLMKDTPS
In test [3] the target is T2, Oxytocin receptor (Macaca mulatta, UniProt P56494).
T2 sequence (P56494 whole entry): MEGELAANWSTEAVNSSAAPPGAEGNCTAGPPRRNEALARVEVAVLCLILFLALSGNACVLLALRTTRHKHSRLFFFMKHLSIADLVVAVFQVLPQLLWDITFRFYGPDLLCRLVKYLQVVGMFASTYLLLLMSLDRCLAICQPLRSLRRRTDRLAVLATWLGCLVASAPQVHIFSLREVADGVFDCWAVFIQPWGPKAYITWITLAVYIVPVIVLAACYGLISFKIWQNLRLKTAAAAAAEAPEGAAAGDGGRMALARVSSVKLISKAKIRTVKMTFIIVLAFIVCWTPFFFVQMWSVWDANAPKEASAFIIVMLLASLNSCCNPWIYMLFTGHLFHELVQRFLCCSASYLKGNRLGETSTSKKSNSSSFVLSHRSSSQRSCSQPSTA

The target in test [4] is T3, Oxytocin receptor (Rattus norvegicus, UniProt P70536).
T3 sequence (P70536 whole entry): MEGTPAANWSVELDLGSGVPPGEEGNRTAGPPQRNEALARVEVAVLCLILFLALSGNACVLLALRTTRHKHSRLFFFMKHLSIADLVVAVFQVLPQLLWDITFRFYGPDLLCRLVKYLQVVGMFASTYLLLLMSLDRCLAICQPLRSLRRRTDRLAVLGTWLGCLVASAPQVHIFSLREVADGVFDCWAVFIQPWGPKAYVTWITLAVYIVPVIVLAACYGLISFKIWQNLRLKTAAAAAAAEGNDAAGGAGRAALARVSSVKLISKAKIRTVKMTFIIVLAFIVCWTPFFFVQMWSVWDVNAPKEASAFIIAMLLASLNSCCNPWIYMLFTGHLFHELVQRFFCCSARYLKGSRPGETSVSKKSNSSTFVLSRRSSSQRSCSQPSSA

Test [5] concerns the target T4, Oxytocin receptor (Homo sapiens, UniProt P30559).
T4 sequence (P30559 whole entry): T2 sequence (P56494 whole entry) with E4A, T11A, V14A, S16A, C27R, F51L, H69Q, M255V, N355R, T362A

As for `CC[C@H](C)[C@@H]1NC(=O)[C@@H](Cc2c[nH]c3ccccc23)NC(=O)[C@@H]2CCCN2C(=O)[C@@H](Cc2c[nH]cn2)NC(=O)[C@@H]2CCCCN2C(=O)[C@H]2CCCCN2C1=O` [CAS_196819] (cyclo(I[dPip][Pip][dH]P[dW])), the Ki amounted to 2200 nM in test [1] and 3100 nM in test [2].
On to `CCC(C)C1NC(=O)[C@H](Cc2ccccc2)NC(=O)[C@H]2CCCN2C(=O)[C@H](Cc2ccccc2)N(C)C(=O)[C@@H]2CCC=NN2C(=O)[C@H]2CCC=NN2C1=O` (some centres undefined) [J325.338D], for which the Ki in test [3] is 12 nM; in test [4], 7.3 nM and 12 nM.
In the case of `CC[C@H](C)[C@@H]1NC(=O)[C@@H](Cc2c[nH]c3ccccc23)NC(=O)[C@@H]2CCCN2C(=O)[C@@H](Cc2cnc[nH]2)NC(=O)[C@@H]2CCCCN2C(=O)[C@H]2CCC=NN2C1=O` [J325.349J] (cyclo(I[dPiz(1,6-dehydro)][Pip][dH]P[dW])), the Ki was 1.3 nM in test [5]; 2.3 nM in test [3]; 1.3 nM and 2.5 nM in test [4]; 1200 nM in test [1]; 370 nM in test [2].
In the case of `CC[C@H](C)[C@@H]1NC(=O)[C@@H](Cc2ccccc2)NC(=O)[C@@H]2CCCN2C(=O)[C@@H](Cc2ccccc2)N(C)C(=O)[C@H]2CCC=NN2C1=O` [J440.774A], the inhibitory constant (Ki) in test [5] was 21 nM; in test [3] it was 33 nM; in test [4], 6 nM and 13 nM; in test [1] it was 240 nM; in test [2], 550 nM.
For `CCC(C)C1NC(=O)[C@H](Cc2ccccc2)NC(=O)[C@H]2CCCN2C(=O)[C@H](Cc2ccccc2)N(C)C(=O)[C@H]2CC(CN(C)C)CNN2C(=O)[C@H]2CCC=NN2C1=O` (some centres undefined) [J440.775J], the Ki in test [5] was 4.1 nM; in test [3], 8.1 nM; in test [4], 4.3 nM and 6.2 nM; in test [1], 550 nM; in test [2], 1100 nM.
Consider `CCC(C)C(NC(=O)C(N)Cc1ccc2ccccc2c1)C(=O)C1(C=O)CCCN1C(=O)C(N)CC1=NC(C(=O)N2CCCCC2)(C(=O)N2CCCCC2)N=C1` (centres undefined) [NSC_188397], for which the inhibition constant Ki was 5.1 nM in test [5]; 6.4 nM in test [3]; 0.7 nM and 0.8 nM in test [4]; 760 nM in test [1]; 810 nM and 320 nM in test [2].
`CCC(C)C(N)C(=O)N(C(=O)C1CCCN1C(=O)C(CC1=CC=CCC1(C(=O)N1C=CC=CC1)C(=O)N1CCNCC1)NC)C(C=O)Cc1c[nH]c2ccccc12` (centres undefined) [NSC_3083084]: the Ki in test [5] is 4.5 nM; in test [3], 4.7 nM; in test [4], 3.4 nM and 4.2 nM; in test [1], 9500 nM; in test [2], 240 nM.
